In patent US8912188B2, “Substituted quinoxaline carboxylic acids for the inhibition of PASK” (BioEnergenix, LLC, priority 2011, dated 2014):
pIC50: −log10 of the molar value.

Tests used:
PASK = target: T1, PASK (UniProt #Q96RG2; human recombinant N-terminal GST tagged construct, residues 879-1323) (Homo sapiens, UniProt Q96RG2); assay: PASK ATP Radiochemical Assay; type: biochemical; details: 33P-ATP, Myelin Basic Protein substrate, 120 min at room temperature, read-out: IC50 Kinase Domain
T1 construct: human recombinant N-terminal GST tagged construct, residues 879-1323; GST (N); host or cells: insect cells
Procedure: Biochemical Assay for hPASK Activity
PASK ATP Radiochemical Assay
Test compounds in DMSO are then added and the mixture, followed by delivery of ^33P-ATP (specific activity 0.01 μCi/μl final) to initiate the reaction. […] The entire reaction mixture is washed through onto a P81 Phosphocellulose paper and washed three times for 10 minutes in 75 mM phosphoric acid and once in methanol prior to drying and scintillation counting.

PASK (Invitrogen) = target: T2, PASK (Invitrogen) (Homo sapiens, UniProt Q96RG2); assay: PAS Kinase FRET Assay; type: biochemical; details: PAS kinase TR-FRET assay (665 nm/615 nm), 2 hours at 25° C.; read-out: IC50 Kinase Domain
T2 construct: IC50 Kinase Domain; purchased Invitrogen
T2 sequence (Q96RG2 999-1251 limits assumed): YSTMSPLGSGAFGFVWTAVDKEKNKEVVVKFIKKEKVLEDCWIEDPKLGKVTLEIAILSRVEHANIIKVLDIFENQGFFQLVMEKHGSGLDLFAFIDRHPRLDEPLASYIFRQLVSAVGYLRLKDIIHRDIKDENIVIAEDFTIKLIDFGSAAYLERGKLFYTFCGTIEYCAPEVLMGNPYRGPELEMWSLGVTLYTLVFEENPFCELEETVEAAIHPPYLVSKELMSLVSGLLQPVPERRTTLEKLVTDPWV

T1 sequence (Q96RG2 879-1323, stated change not applied): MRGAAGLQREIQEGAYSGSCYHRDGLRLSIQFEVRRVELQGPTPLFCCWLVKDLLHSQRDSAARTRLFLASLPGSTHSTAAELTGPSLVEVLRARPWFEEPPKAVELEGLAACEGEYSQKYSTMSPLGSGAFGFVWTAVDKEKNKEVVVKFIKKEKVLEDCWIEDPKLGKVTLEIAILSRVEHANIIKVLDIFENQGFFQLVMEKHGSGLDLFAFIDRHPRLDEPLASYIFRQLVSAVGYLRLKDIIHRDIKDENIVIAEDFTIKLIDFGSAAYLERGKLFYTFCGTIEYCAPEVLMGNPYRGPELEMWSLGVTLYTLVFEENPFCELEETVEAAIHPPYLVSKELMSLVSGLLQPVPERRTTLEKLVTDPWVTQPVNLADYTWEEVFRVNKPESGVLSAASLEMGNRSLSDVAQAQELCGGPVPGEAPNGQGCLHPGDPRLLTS

Compound | pIC50 (PASK) | pIC50 (PASK (Invitrogen))
CC[C@@H](C)N(C)c1nc2cc(C(=O)O)ccc2nc1-c1cc2cc(F)ccc2o1 [Example 74, (R)-3-(sec-Butyl(methyl)amino)-2-(5-fluorobenzofuran-2-yl)quinoxaline-6-carboxylic acid] | > 5.00 | > 5.00
C[C@H]1CCCN1c1nc2cc(C(=O)O)ccc2nc1-c1ccc2scnc2c1 [Example 57, 2-(1,3-Benzothiazol-5-yl)-3-[(2S)-2-methylpyrrolidin-1-yl]quinoxaline-6-carboxylic acid] | > 5.00 | > 5.00
CC(C)N(C)c1nc2cc(C(=O)O)ccc2nc1-c1cc2cc(Cl)ccc2o1 [Example 19, 2-(5-Chlorobenzofuran-2-yl)-3-(isopropyl(methyl)amino)quinoxaline-6-carboxylic acid] | > 5.00 | > 5.00
CC[C@H](C)N(C)c1nc2cc(C(=O)O)ccc2nc1-c1cc2cc(F)ccc2o1 [Example 69, (S)-3-(sec-Butyl(methyl)amino)-2-(5-fluorobenzofuran-2-yl)quinoxaline-6-carboxylic acid] | > 5.00 | > 5.00
CC(C)N(C)c1nc2cc(C(=O)O)ccc2nc1-c1ccc2c(c1)CCCO2 [Example 21, 2-(Chroman-6-yl)-3-(isopropyl(methyl)amino)quinoxaline-6-carboxylic acid] | > 5.00 | > 5.00
C[C@H]1COCCN1c1nc2cc(C(=O)O)ccc2nc1-c1ccc2[nH]ccc2c1 [Example 66, (S)-2-(1H-Indol-5-yl)-3-(3-methylmorpholino)quinoxaline-6-carboxylic acid] | > 5.00 | > 5.00
Cc1n[nH]c2ccc(-c3nc4ccc(C(=O)O)cc4nc3N(C)C(C)C)cc12 [Example 44, 2-(3-Methyl-M-indazol-5-yl)-3-(isopropyl(methyl)amino)quinoxaline-6-carboxylic acid] | > 5.00 | > 5.00
O=C(O)c1ccc2nc(-c3cc4ccc(F)cc4o3)c(N3CCCCCC3)nc2c1 [Example 48, 3-(Azepan-1-yl)-2-(6-fluoro-1-benzofuran-2-yl)quinoxaline-6-carboxylic acid] | > 5.00 | > 5.00
C[C@H]1CCCCN1c1nc2cc(C(=O)O)ccc2nc1-c1ccc2[nH]ccc2c1 [Example 73, (S)-2-(1H-Indol-5-yl)-3-(2-methylpiperidin-1-yl)quinoxaline-6-carboxylic acid] | > 5.00 | > 5.00
CC(C)N(C)c1nc2cc(C(=O)O)ccc2nc1-c1cc(-c2ccccc2)co1 [Example 52, 3-[Methyl(propan-2-yl)amino]-2-(4-phenylfuran-2-yl)quinoxaline-6-carboxylic acid] | > 5.00 | > 5.00
CC(C)N(C)c1nc2cc(C(=O)O)ccc2nc1-c1cc2ccccc2s1 [Example 23, 2-(Benzo[b]thiophen-2-yl)-3-(isopropyl(methyl)amino)quinoxaline-6-carboxylic acid] | > 5.00 | > 5.00
C[C@H]1CCCN1c1nc2cc(C(=O)O)ccc2nc1-c1cc2cc(F)ccc2s1 [Example 55, (S)-2-(5-Fluorobenzo[b]thiophen-2-yl)-3-(2-methylpyrrolidin-1-yl)quinoxaline-6-carboxylic acid] | > 5.00 | > 5.00
CN(c1nc2cc(C(=O)O)ccc2nc1-c1ccc2[nH]ccc2c1)C1CC1 [Example 64, 3-[Cyclopropyl(methyl)amino]-2-(1H-indol-5-yl)quinoxaline-6-carboxylic acid] | > 5.00 | > 5.00
CC(C)N(C)c1nc2cc(C(=O)O)ccc2nc1-n1cnc2ccccc21 [Example 63, 2-(1H-Benzo[d]imidazol-1-yl)-3-(isopropyl(methyl)amino)quinoxaline-6-carboxylic acid] | > 5.00 | > 5.00
COC[C@H]1CCCN1c1nc2cc(C(=O)O)ccc2nc1-c1cc2cc(F)ccc2o1 [Example 68, 2-(5-Fluoro-1-benzofuran-2-yl)-3-[(2R)-2-(methoxymethyl)pyrrolidin-1-yl]quinoxaline-6-carboxylic acid] | > 5.00 | > 5.00
CC(C)N(C)c1nc2cc(C(=O)O)ccc2nc1-c1cc2ccc(F)cc2o1 [Example 45, 2-(6-Fluoro-1-benzofuran-2-yl)-3-[methyl(propan-2-yl)amino]quinoxaline-6-carboxylic acid] | > 5.00 | > 5.00

Results, then the compound that gave them:

pIC50 (PASK) | pIC50 (PASK (Invitrogen)) | Compound
> 5.00 | > 5.00 | C[C@H]1CCCN1c1nc2cc(C(=O)O)c(O)cc2nc1-c1ccc2[nH]ncc2c1 [Example 93, (S)-7-Hydroxy-2-(1H-indazol-5-yl)-3-(2-methylpyrrolidin-1-yl)quinoxaline-6-carboxylic acid]
> 5.00 | > 5.00 | CCN(c1nc2cc(C(=O)O)ccc2nc1-c1ccc(F)cc1)C(C)C [Example 111, 3-(Ethyl(isopropyl)amino)-2-(4-fluorophenyl)quinoxaline-6-carboxylic acid]
> 5.00 | > 5.00 | Cc1cc2cc(-c3nc4ccc(C(=O)O)cc4nc3N3CCC[C@@H]3C)ccc2[nH]1 [Example 75, 2-(2-Methyl-1H-indol-5-yl)-3-[(2S)-2-methylpyrrolidin-1-yl]quinoxaline-6-carboxylic acid]
> 5.00 | > 5.00 | C[C@@H]1CCCCN1c1nc2cc(C(=O)O)ccc2nc1-c1ccc(F)cc1 [Example 121, (R)-2-(4-Fluorophenyl)-3-(2-methylpiperidin-1-yl)quinoxaline-6-carboxylic acid]
> 5.00 | > 5.00 | CC(C)N(C)c1nc2cc(C(=O)O)ccc2nc1-c1ccc(F)cc1F [Example 147, 2-(2,4-Difluorophenyl)-3-[methyl(propan-2-yl)amino]quinoxaline-6-carboxylic acid]
> 5.00 | > 5.00 | C[C@@H]1CCCN1c1nc2cc(C(=O)O)ccc2nc1-c1ccc2c(c1)OCO2 [Example 87, (R)-2-(Benzo[d][1,3]dioxol-5-yl)-3-(2-methylpyrrolidin-1-yl)quinoxaline-6-carboxylic acid]
> 5.00 | > 5.00 | Cc1cc2cc(-c3nc4ccc(C(=O)O)cc4nc3N3CCCC[C@@H]3C)ccc2[nH]1 [Example 88, (S)-2-(2-Methyl-1H-indol-5-yl)-3-(2-methylpiperidin-1-yl)quinoxaline-6-carboxylic acid]
> 5.00 | > 5.00 | Cc1coc2ccc(-c3nc4ccc(C(=O)O)cc4nc3N(C)C(C)C)cc12 [Example 85, 3-[Methyl(propan-2-yl)amino]-2-(3-methyl-1-benzofuran-5-yl)quinoxaline-6-carboxylic acid]
> 5.00 | > 5.00 | O=C(O)c1ccc2nc(-c3ccc(F)cc3)c(N3CCCC[C@@H]3C(F)(F)F)nc2c1 [Example 106, 2-(4-Fluorophenyl)-3-[(2R)-2-(trifluoromethyl)piperidin-1-yl]quinoxaline-6-carboxylic acid]
> 5.00 | > 5.00 | CN(c1nc2cc(C(=O)O)ccc2nc1-c1ccc(F)cc1)C1CCC1 [Example 146, 3-(Cyclobutyl(methyl)amino)-2-(4-fluorophenyl)quinoxaline-6-carboxylic acid]
> 5.00 | > 5.00 | CN(c1nc2cc(C(=O)O)ccc2nc1-c1ccc(F)cc1)C1CCCC1 [Example 135, 3-(Cyclopentyl(methyl)amino)-2-(4-fluorophenyl)quinoxaline-6-carboxylic acid]
> 5.00 | > 5.00 | CC[C@H](C)N(C)c1nc2cc(C(=O)O)ccc2nc1-c1ccc(F)cc1 [Example 104, (S)-3-(sec-Butyl(methyl)amino)-2-(4-fluorophenyl)quinoxaline-6-carboxylic acid]
> 5.00 | > 5.00 | CN(c1nc2cc(C(=O)O)ccc2nc1-c1ccc(F)cc1)C(C)(C)C [Example 107, 3-(tert-Butyl(methyl)amino)-2-(4-fluorophenyl)quinoxaline-6-carboxylic acid]
> 5.00 | > 5.00 | CC(C)N(C)c1nc2cc(C(=O)O)ccc2nc1-c1ccc(-c2ccccc2)o1 [Example 77, 3-[Methyl(propan-2-yl)amino]-2-(5-phenylfuran-2-yl)quinoxaline-6-carboxylic acid]
> 5.00 | > 5.00 | CCCN(CCC)c1nc2cc(C(=O)O)ccc2nc1-c1ccc(F)cc1 [Example 140, 3-(Dipropylamino)-2-(4-fluorophenyl)quinoxaline-6-carboxylic acid]
> 5.00 | > 5.00 | C[C@H]1CCCN1c1nc2cc(C(=O)O)ccc2nc1-c1ccc(F)cc1F [Example 115, (S)-2-(2,4-Difluorophenyl)-3-(2-methylpyrrolidin-1-yl)quinoxaline-6-carboxylic acid]
> 5.00 | > 5.00 | Cc1cc2cc(-c3nc4ccc(C(=O)O)cc4nc3N(C)C3CC3)ccc2[nH]1 [Example 89, 3-[Cyclopropyl(methyl)amino]-2-(2-methyl-1H-indol-5-yl)quinoxaline-6-carboxylic acid]
> 5.00 | > 5.00 | C[C@H]1CCCN1c1nc2cc(C(=O)O)ccc2nc1-c1ccc(F)c(F)c1 [Example 148, (S)-2-(3,4-Difluorophenyl)-3-(2-methylpyrrolidin-1-yl)quinoxaline-6-carboxylic acid]
> 5.00 | > 5.00 | CCN(c1nc2cc(C(=O)O)ccc2nc1-c1ccc(F)cc1)C1CCCCC1 [Example 112, 3-[Cyclohexyl(ethyl)amino]-2-(4-fluorophenyl)quinoxaline-6-carboxylic acid]
